Data set [1] can be described thus: in vitro. In kind it is cell-based. As to conditions: human. How it is done: HEK293T are model normal (non-cancer) cells that are widely used to compare the selectivity of cytostatic formulations on cancer cells. According to the MTT test, the concentration of cytostatics of 100 µM causes the death of up to 85% of cancer cells A549 (Figure 4a), while for non-cancer cells (HEK293T), the dying rate is only 15–20%.
(§1) Adenocarcinomic human alveolar basal epithelial cells A549 cell lines (Manassas, VA, USA) were cultured in RPMI-1640 medium, linear cells of the embryonic kidney human epithelium (HEK293T) were grown in DMEM medium as described earlier. Cell lines were obtained from Lomonosov Moscow State University Depository of Live Systems Collection and Laboratory of Medical Biotechnology, Institute of Biomedical Chemistry (Moscow, Russia).
(§2) The cytotoxic activity of paclitaxel, Apiol-PPh3 and analogues was determined using an MTT test. Paclitaxel-adjuvant synergism coefficients (SC) were calculated as CV (paclitaxel) × CV (alone adjuvant)/CV (combo paclitaxel + adjuvant), where CV represents the cell viability. The synergy coefficient can be interpreted as strong synergy (SC > 2), synergy (2 > SC > 1.2), indifference/additivity (1.2 > SC > 0.8), antagonism (0.8 > SC > 0.5), and inhibition (SC < 0.5), as described earlier.

Data set [2] concerns A549 cells. Briefly: MTT assay, cytotoxic activity against A549. It is filed as cell-based. As to conditions: Homo sapiens, A549; X in M-β-CD 1:5 mol/mol; MTT; read-out: −lg (IC50) of X in M-β-CD against A549 (converted). How it is done:
Concentrations of the active substance varied from 10^−2 to 10^−4 M. For MTT assay and biological experiments, substances in the concentration range from 10^−3 to 10^−9 M were studied by the dilution of initial ones in a cell growth medium or buffer.
as §1, §2
For orientation: Tetrazolium dyes change colour on reduction, which living cells bring about.

The nature of data set [3]: Dissociation constants of complexes with γ-CD by FTIR spectroscopy (Hill fit). In kind it is physicochemical. Particulars: complex formed in molar excess of X approximately 1.2–1.4, PBS. The source says:
(§3) FTIR spectroscopy provides valuable data on the interaction of molecules, including those applicable to characterize the non-covalent complexes of apiol-PPh3 (and analogues) with cyclodextrins and heparin. In the FTIR spectra of apiol-PPh3 and analogues (Figure 3a), one characteristic is the bands of valence oscillations of the bonds C=C of the aromatic system (1450–1650 cm^−1) overlapping with the bands of deformation oscillations C-H (1400–1500 cm^−1). The intensity of these peaks increases with the formation of non-covalent complexes of apiol-PPh3 and its analogues with cyclodextrins and heparin due to the transition of the solid phase into solution. Linear fitting of the intensity of peaks in the FTIR spectra on the cyclodextrin or heparin concentration (Section 2.3) in Hill coordinates allows determining the dissociation constants of the complexes (Table 2). The interactions of triphenylphosphine derivatives of allylbenzenes with γ-CD is rather weak (Kd 10 mM values). In the case of M-β-CD, the dissociation constants reach millimolar values, which is sufficient to obtain soluble forms of adjuvants (Table 2). Thus, the β-cyclodextrin derivatives are more suitable in terms of size for inclusion of the adjuvants studied. […] Comparing the values of the dissociation constants of alkylbenzenes and PPh3-derivatives complexes with cyclodextrins, we observed that these Kd values are close, which means that it is the allylbenzene-fragment (of apiol-PPh3) that plunges into the cyclodextrin cavity, and the triphenylphosphine radical looks outward (Figure 3b), which would provide the implementation of mitochondrial targeting of the developed formulations.
(§4) Non-covalent complexes of apiol, apiol-PPh3 and analogues with cyclodextrins (with different molar ratios) and heparin (15 kDa, 1:1 w/w) were obtained by adding solutions of cyclodextrins (100 mg/mL) or heparin (20 mg/mL) in PBS to apiol or apiol-PPh3 (or analogues) samples (2–3 mg). The excess of CDs or heparin was varied from 0.04 to 10 mol/mol. Then, mixtures were incubated for 1 h at 40 °C. Cyclodextrin or heparin are necessary for the solubilization of extremely poorly soluble compounds.
(§5) The ATR-FTIR spectra of samples (Section 3.3) were acquired using a Bruker Tensor 27 spectrometer equipped with a liquid N2 cooled MCT (mercury cadmium telluride) detector. Samples were placed in a thermostatic cell BioATR-II with ZnSe ATR element (Bruker, Germany). FTIR spectra were recorded from 850 to 4000 cm^−1 with 1 cm^−1 spectral resolution; 50 scans were accumulated and averaged. Spectral data were processed using the Bruker software system Opus 8.2.28 (Bruker, Germany). The spectrum of cyclodextrin or heparin in the corresponding concentration was subtracted from the spectra of the complexes. […]

Data set [4] concerns A549 cells. Briefly: MTT assay, synergy of adjuvants with paclitaxel against A549. It is filed as cell-based, human. As to conditions: X − M-β-CD, SC = CV(paclitaxel) × CV(adjuvant)/CV(combo).
Description: Apparently PPh3 derivatives effectively penetrate into cancer cells along a potential gradient, inhibit efflux proteins and mitochondrial enzymes, causing the apoptosis of cancer cells, with IC50 values being lower by two orders of magnitude than the corresponding allylbenzene (Table 3). […] For allylbenzenes, a synergy close to additivity (the cytostatic effect of adjuvant + paclitaxel is almost equal to the sum of their individual contributions) was observed; for PPh3 derivatives, a pronounced increase in the action of paclitaxel is characteristic (the cytostatic effect of adjuvant + paclitaxel is much higher (>) than the sum of their individual contributions). For apiol-PPh3, the most pronounced effect of increasing the activity of paclitaxel was observed (Figure 4b).
Figure 4 Viability of A549 cells in the presence of paclitaxel and allylbenzenes’ PPh3 derivatives in the form of complexes with M-β-CD (1:5 mol/mol). MTT assay. (a) Dose–effect graphs. (b) MTT assay results for 100 nM paclitaxel alone and combined with allylbenzenes’ PPh3 derivatives in the form of complexes with M-β-CD (1:5 mol/mol).
as §2

The nature of data set [5]: Dissociation constants of complexes with M-β-CD by FTIR spectroscopy (Hill fit). It is filed as physicochemical. As to conditions: X-PPh3, complex 1:1 molar ratio, PBS.
Description: as §3, §4, §5

As to `COc1cc(CCC[P+](c2ccccc2)(c2ccccc2)c2ccccc2)c(OC)c(OC)c1OC` [Allyltetramethoxybenzene-PPh3], in data set [1], the viability (commonly the share of living cells, or the viability signal relative to a control) at 10 µM was 98 ± 1%; the viability at 100 µM was determined as 88 ± 3%; the viability at 300 µM was 83 ± 4%. Further, in data set [2], the IC50 (in general, the concentration needed to halve the response being measured) was 15.8 µM. Also, the “−lg Kd (X − γ-CD)” value in data set [3] is 2.1 ± 0.2. Further, the “Synergy Coefficients of Adjuvants and PPh3–Adjuvants with Paclitaxel” value (“Synergy Coefficients” for short) in data set [4] came to 1.3 ± 0.1. The “−lg Kd (X − M-β-CD)” value in data set [5] is recorded as 3.1 ± 0.2.

On to `COc1cc(CCC[P+](c2ccccc2)(c2ccccc2)c2ccccc2)c(OC)c2c1OCO2` [Apiol-PPh3], for which, in data set [1], the viability at 10 µM stood at 93 ± 2%, the viability at 100 µM was 82 ± 3% and the viability at 300 µM amounted to 71 ± 2%. Besides, the IC50 in data set [2] is 1.58 µM. In data set [3], the “−lg Kd (X − γ-CD)” value was 1.2 ± 0.2. For the same compound, in data set [4], the “Synergy Coefficients” value amounted to 2.2 ± 0.2. Besides, the “−lg Kd (X − M-β-CD)” value in data set [5] amounted to 2.9 ± 0.3.

Turning to `COc1c(CCC[P+](c2ccccc2)(c2ccccc2)c2ccccc2)cc2c(c1OC)OCO2` [Dillapiol-PPh3], in data set [1], the viability at 10 µM turned out to be 95 ± 3%, the viability at 100 µM was 84 ± 5% and the viability at 300 µM worked out at 70 ± 5%. Moreover, the IC50 in data set [2] was 2.51 µM. The “−lg Kd (X − γ-CD)” value in data set [3] was 1.4 ± 0.3. Moreover, the “Synergy Coefficients” value in data set [4] came out at 1.5 ± 0.1. In addition, in data set [5], the “−lg Kd (X − M-β-CD)” value stood at 2.6 ± 0.2.

For the compound `COc1cc(CCC[P+](c2ccccc2)(c2ccccc2)c2ccccc2)cc2c1OCO2` [Myristicin-PPh3], in data set [1], the viability at 10 µM came out at 97 ± 3%, the viability at 100 µM worked out at 91 ± 2% and the viability at 300 µM is 75 ± 3%. Further, in data set [2], the IC50 is 5.01 µM. Besides, the “−lg Kd (X − γ-CD)” value in data set [3] is 1.3 ± 0.1. In addition, in data set [4], the “Synergy Coefficients” value was determined as 1.8 ± 0.3. In addition, in data set [5], the “−lg Kd (X − M-β-CD)” value came out at 3.0 ± 0.3.

For the origin of these results see article PMC10747112, “Triphenylphosphine Derivatives of Allylbenzenes Express Antitumor and Adjuvant Activity When Solubilized with Cyclodextrin-Based Formulations” (Pharmaceuticals, 2023).
